From patent US20240140986A1, “SYNTHETIC URSOLIC ACID DERIVATIVES AND METHODS OF USE THEREOF” (REATA PHARMACEUTICALS, INC., priority 2021, published 2024)
Like-named read-outs stand apart in the source and are kept apart here.

Assays:
[1] = tested on: IFNγ-induced NO production in RAW 264.7 cells; experiment: Nitric Oxide Suppression Assay (IFNγ-induced NO, Griess nitrite readout); format: cell-based, mouse; settings: for IC50: Mus musculus; for Avg NO IC50 Relative to RTA402 (fold): Table 2, ratio to RTA402
Procedure, shortened: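 RAW 264.7 mouse macrophages in RPMI 1640 with 0.5% FBS were pretreated 2 h with compound (0.1% DMSO final), then stimulated with 20 ng/mL IFNγ for 24 h at 37° C. Supernatant nitrite was read by Griess absorbance at 525 nm against a nitrite standard curve, normalized to DMSO-IFNγ wells; IC50 from curve fit. Viability by WST-1.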

[2] = tested on: Nrf2 / ARE-dependent luciferase in AREc32 reporter cell line; experiment: AREc32 luciferase reporter activation (Nrf2 induction); format: cell-based, human; settings: for EC (2-fold): Homo sapiens, Arec32; for Relative Avg AREc32 EC2X Relative to RTA402 (fold): ratio to RTA402
Procedure, shortened: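 EC2X is the concentration raising luminescence 2-fold above DMSO-treated cells, from a nonlinear-regression dose–response fit. Compounds (0.03–1000 nM) were applied for nineteen hours, starting one day after seeding 20,000 reporter cells per well. Luciferase was read with One-Glo reagent.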

[3] = RAW264.7, Table 2, RAW 264.7 cells, 2 h pretreatment, 20 ng/mL interferon gamma 24 h, read-out: Avg NO IC50 (nM) (Mean ± SD)
[4] = RAW264.7, Table 3, ursolic acid derivatives, read-out: Avg NO IC50 (nM) (Mean ± SD)
[5] = Table 2, concentration increasing luminescence 2-fold above vehicle, 19 h treatment, read-out: Avg AREc32 EC2X (nM) (Mean ± SD)
[6] = Table 3, ursolic acid derivatives, read-out: Avg ARE EC-2X (nM) (Mean ± SD)
[7] = RAW264.7, Table 3, oleanolic acid derivative analogs, read-out: Avg NO IC50
[8] = Table 3, oleanolic acid derivative analogs, read-out: Avg ARE EC-2X

| Compound | IC50 [1, 3] | IC50 [1, 4] | Avg NO IC50 Relative to RTA402 (fold) [1] | EC (2-fold) [2, 5] | EC (2-fold) [2, 6] | Relative Avg AREc32 EC2X Relative to RTA402 (fold) ([2]; Table 2) | IC50 [1, 7] | EC (2-fold) [2, 8] |
| --- | --- | --- | --- | --- | --- | --- | --- | --- |
| C[C@@H]1[C@H]2[C@H]3C(=O)C=C4[C@@]5(C)C=C(C#N)C(=O)C(C)(C)[C@@H]5CC[C@@]4(C)[C@]3(C)CC[C@@]2(CN2CCOC2=O)CC[C@H]1C [Compound T41] | 5.41 ± 2.52 nM | 5.41 ± 2.52 nM | 1.79 ± 0.77 fold | 4.73 ± 2.12 nM | 4.73 ± 2.12 nM | 0.354 ± 0.155 fold |  |  |
| C[C@@H]1[C@H]2[C@H]3C(=O)C=C4[C@@]5(C)C=C(C#N)C(=O)C(C)(C)[C@@H]5CC[C@@]4(C)[C@]3(C)CC[C@@]2(CNC(=O)C2CC2)CC[C@H]1C [Compound T19] | 2.33 ± 1.47 nM | 2.33 ± 1.47 nM | 0.74 ± 0.14 fold | 2.27 ± 0.52 nM | 2.27 ± 0.52 nM | 0.224 ± 0.072 fold |  |  |
| C[C@@H]1[C@H]2[C@H]3C(=O)C=C4[C@@]5(C)C=C(C#N)C(=O)C(C)(C)[C@@H]5CC[C@@]4(C)[C@]3(C)CC[C@@]2(C(=O)N2CCC2)CC[C@H]1C [Compound T70] | 19.6 ± 6.1 nM |  | 8.82 ± 3.07 fold | 21.6 ± 1.3 nM |  | 1.78 ± 0.34 fold |  |  |
| CCc1noc([C@]23CC[C@@H](C)[C@H](C)[C@H]2[C@H]2C(=O)C=C4[C@@]5(C)C=C(C#N)C(=O)C(C)(C)[C@@H]5CC[C@@]4(C)[C@]2(C)CC3)n1 [Compound T4] | 14.8 ± 2.9 nM | 14.8 ± 2.9 nM | 7.06 ± 0.83 fold | 19.9 ± 0.2 nM | 19.9 ± 0.2 nM | 1.93 ± 0.23 fold |  |  |
| CCNC(=O)CC[C@]12CC[C@@H](C)[C@H](C)[C@H]1[C@H]1C(=O)C=C3[C@@]4(C)C=C(C#N)C(=O)C(C)(C)[C@@H]4CC[C@@]3(C)[C@]1(C)CC2 [Compound T79] | 4.5 ± 1.84 nM |  | 1.25 ± 0.13 fold | 4.32 ± 0.5 nM |  | 0.361 ± 0.028 fold |  |  |
| CNC(=O)C[C@]12CC[C@@H](C)[C@H](C)[C@H]1[C@H]1C(=O)C=C3[C@@]4(C)C=C(C#N)C(=O)C(C)(C)[C@@H]4CC[C@@]3(C)[C@]1(C)CC2 [Compound T91] | 4.69 ± 1.87 nM |  | 2.44 ± 1.39 fold | 2.96 ± 0.77 nM |  | 0.359 ± 0.078 fold |  |  |
| Cc1noc([C@]23CC[C@@H](C)[C@H](C)[C@H]2[C@H]2C(=O)C=C4[C@@]5(C)C6O[C@@]6(C#N)C(=O)C(C)(C)[C@@H]5CC[C@@]4(C)[C@]2(C)CC3)n1 (some centres unmarked) [Compound T99] | 14.8 ± 4.7 nM |  | 5.92 ± 0.69 fold | 10.4 ± 0.8 nM |  | 0.864 ± 0.046 fold |  |  |
| CCNC(=O)CC[C@]12CC[C@@H](C)[C@H](C)[C@H]1[C@H]1C(=O)C[C@@H]3[C@@]4(C)C=C(C#N)C(=O)C(C)(C)[C@@H]4CC[C@@]3(C)[C@]1(C)CC2 [Compound T103] | 22.1 ± 4.2 nM |  | 14.60 ± 0.59 fold | 43.1 ± 10.4 nM |  | 4.52 ± 0.90 fold |  |  |
| C[C@@H]1[C@H]2[C@H]3C(=O)C=C4[C@@]5(C)C=C(C#N)C(=O)C(C)(C)[C@@H]5CC[C@@]4(C)[C@]3(C)CC[C@@]2(CC(=O)N2CCC2)CC[C@H]1C [Compound T93] | 5.69 ± 1.93 nM |  | 3.06 ± 1.70 fold | 4.24 ± 0.66 nM |  | 0.525 ± 0.129 fold |  |  |
| CC1(C)CC[C@]2(CN3CCOC3)CC[C@]3(C)[C@H](C(=O)C=C4[C@@]5(C)C=C(C#N)C(=O)C(C)(C)[C@@H]5CC[C@]43C)[C@@H]2C1 [CC42, reference compound] |  |  |  |  |  |  | 17.3 nM | 122 nM |
| CC(=O)N(C)C[C@]12CCC(C)(C)C[C@H]1[C@H]1C(=O)C=C3[C@@]4(C)C=C(C#N)C(=O)C(C)(C)[C@@H]4CC[C@@]3(C)[C@]1(C)CC2 [CC35, reference compound] |  |  |  |  |  |  | 0.8 nM | 6.81 nM |
| CC1(C)CC[C@]2(Cn3ccnc3)CC[C@]3(C)[C@H](C(=O)C=C4[C@@]5(C)C=C(C#N)C(=O)C(C)(C)[C@@H]5CC[C@]43C)[C@@H]2C1 [CC51, reference compound] |  |  |  |  |  |  | 3.9 nM | 18 nM |
| COC(=O)CC[C@]12CC[C@@H](C)[C@H](C)[C@H]1[C@H]1C(=O)C=C3[C@@]4(C)C=C(C#N)C(=O)C(C)(C)[C@@H]4CC[C@@]3(C)[C@]1(C)CC2 [Compound T76] | 14.8 ± 2.8 nM |  | 9.13 ± 1.38 fold | 8.7 ± 0.63 nM |  | 1.1 ± 0.3 fold |  |  |
| C[C@@H]1[C@H]2[C@H]3C(=O)C=C4[C@@]5(C)C=C(C#N)C(=O)C(C)(C)[C@@H]5CC[C@@]4(C)[C@]3(C)CC[C@@]2(Cn2cnnn2)CC[C@H]1C [Compound T52] | 8.99 ± 1.84 nM |  | 3.35 ± 0.65 fold | 8.74 ± 0.51 nM |  | 0.654 ± 0.079 fold |  |  |
| CONC(=O)[C@]12CC[C@@H](C)[C@H](C)[C@H]1[C@H]1C(=O)C=C3[C@@]4(C)C=C(C#N)C(=O)C(C)(C)[C@@H]4CC[C@@]3(C)[C@]1(C)CC2 [Compound T73] | 23.1 ± 6.6 nM |  | 7.02 ± 1.96 fold | 7.93 ± 0.82 nM |  | 0.681 ± 0.159 fold |  |  |
| CCc1noc([C@]23CCC(C)(C)C[C@H]2[C@H]2C(=O)C=C4[C@@]5(C)C=C(C#N)C(=O)C(C)(C)[C@@H]5CC[C@@]4(C)[C@]2(C)CC3)n1 [CC4, reference compound] |  |  |  |  |  |  | 5.3 nM | 21.4 nM |
| Cc1nnc([C@]23CCC(C)(C)C[C@H]2[C@H]2C(=O)C=C4[C@@]5(C)C=C(C#N)C(=O)C(C)(C)[C@@H]5CC[C@@]4(C)[C@]2(C)CC3)o1 [CC69, reference compound] |  |  |  |  |  |  | 2.2 nM | 9.81 nM |
| C[C@@H]1[C@H]2[C@H]3C(=O)C=C4[C@@]5(C)C=C(C#N)C(=O)C(C)(C)[C@@H]5CC[C@@]4(C)[C@]3(C)CC[C@@]2(F)CC[C@H]1C [Compound T67] | 12.2 ± 3.5 nM |  | 3.79 ± 1.16 fold | 11.5 ± 1.6 nM |  | 0.984 ± 0.119 fold |  |  |
| [2H]C([2H])([2H])C(=O)NC[C@]12CCC(C)(C)C[C@H]1[C@H]1C(=O)C=C3[C@@]4(C)C=C(C#N)C(=O)C(C)(C)[C@@H]4CC[C@@]3(C)[C@]1(C)CC2 [CC24, reference compound] |  |  |  |  |  |  | 0.5 nM | 2.96 nM |
| CC1(C)CC[C@]2(N)CC[C@]3(C)[C@H](C(=O)C=C4[C@@]5(C)C=C(C#N)C(=O)C(C)(C)[C@@H]5CC[C@]43C)[C@@H]2C1 [CC16, reference compound] |  |  |  |  |  |  | 3.5 nM | 27.7 nM |
| C[C@@H]1[C@H]2[C@H]3C(=O)C=C4[C@@]5(C)C=C(C#N)C(=O)C(C)(C)[C@@H]5CC[C@@]4(C)[C@]3(C)CC[C@@]2(Cn2cccn2)CC[C@H]1C [Compound T46] | 32.6 ± 2.2 nM |  | 8.4 ± 2.7 fold | 24.1 ± 6.7 nM |  | 2.06 ± 0.26 fold |  |  |
| Cc1nnc([C@]23CC[C@@H](C)[C@H](C)[C@H]2[C@H]2C(=O)C=C4[C@@]5(C)C=C(C#N)C(=O)C(C)(C)[C@@H]5CC[C@@]4(C)[C@]2(C)CC3)o1 [Compound T69] | 16.9 ± 5 nM | 16.9 ± 5 nM | 4.94 ± 1.27 fold | 8.08 ± 1.98 nM | 8.08 ± 1.98 nM | 0.673 ± 0.139 fold |  |  |
| C[C@@H]1[C@H]2[C@H]3C(=O)C=C4[C@@]5(C)C=C(C#N)C(=O)C(C)(C)[C@@H]5CC[C@@]4(C)[C@]3(C)CC[C@@]2(n2cnnn2)CC[C@H]1C [Compound T61] | 12.5 ± 7.3 nM |  | 4.11 ± 0.26 fold | 7.53 ± 2.25 nM |  | 0.601 ± 0.122 fold |  |  |
